Values quoted from earlier work in PMC7511286 (European Journal of Drug Metabolism and Pharmacokinetics, 2020).

Assays:
[1] = free acid, multiple-dose phase 1 study; cited from earlier work
[2] = hepatocytes across different species; ref data on file; cited from earlier work
CYP2C8 = details: human liver microsomes, recombinant enzymes; ref data on file; cited from earlier work
CYP2C9 = details: human liver microsomes, recombinant enzymes; ref data on file; cited from earlier work
[3] = tested on: human mitochondrial enzyme dihydroorotate dehydrogenase (DHODH); details: cited from earlier work
stimulated immune cells = details: cited from earlier work

In the case of `COc1cccc(-c2ccc(NC(=O)C3=C(C(=O)O)CCC3)c(F)c2)c1` [vidofludimus], the “daily dose at which cases of hematuria occurred” value [1] is given as 70 mg, the “number of metabolites identified” value [2] is given as “eight” and the “contribution of CYP isoform to metabolism” value (CYP2C8) is given as “predominant hepatic CYP isoform”. For the same compound, the “contribution of CYP isoform to metabolism” value (CYP2C9) was “smaller contributions”, the “inhibition of DHODH” value [3] was “potent and selective inhibitor” and the “inhibition of IL-17 and IFN-γ release” value (stimulated immune cells) was “very potent inhibitor”.
